Starred links: 1 amine or outer side, 2 acyl side, 3 side chain; linkers in the order of their positions; H or OH if unused. Positions of bridges follow the written chain, without caps; N, C: chain ends. Non-standard residues stand in square brackets, D forms with d. Residues, ends and D or L forms follow the SMILES beside them. *: point of attachment. hPhe(3-Cl-4-CF3) = N[C@@H](CCc1ccc(C(F)(F)F)c(Cl)c1)C(=O)O; hPhe(3-F,4-CF3) = N[C@@H](CCc1ccc(C(F)(F)F)c(F)c1)C(=O)O; 3Oxa8azabicyclo(3.2.1)octane = C1CC2COCC1N2*; NMePhe(4-Me) = CN[C@@H](Cc1ccc(C)cc1)C(=O)O; NMePhe(4-I) = CN[C@@H](Cc1ccc(I)cc1)C(=O)O; X6 = CCN([C@@H](CC1CCCCC1)C(=O)[*:2])[*:1]; hPhe(4-Cl) = N[C@@H](CCc1ccc(Cl)cc1)C(=O)O; NMedβ3hAla = C[C@H](CC(=O)[*:2])N(C)[*:1]; NMeNva(5,5-F2) = CN[C@@H](CCC(F)F)C(=O)O; NMeGly(cPent) = CN[C@H](C(=O)O)C1CCCC1; Gly(cPent) = N[C@H](C(=O)O)C1CCCC1; NMeCha = CN[C@@H](CC1CCCCC1)C(=O)O; cisHyp = O=C(O)[C@@H]1C[C@H](O)CN1; NMehLeu = CN[C@@H](CCC(C)C)C(=O)O; NMeAhp(2) = CCCCC[C@H](NC)C(=O)O; NMeChg = CN[C@H](C(=O)O)C1CCCCC1; NMeT = CN[C@H](C(=O)O)[C@@H](C)O; NMeD = CN[C@@H](CC(=O)O)C(=O)O; NMeHpra = C#CCC[C@H](NC)C(=O)O; NMeL = CN[C@@H](CC(C)C)C(=O)O; NMePra = C#CC[C@H](NC)C(=O)O; NMeV = CN[C@H](C(=O)O)C(C)C; d(β3hA) = C[C@@H](N)CC(=O)O; NMeS = CN[C@@H](CO)C(=O)O; NMeA = CN[C@@H](C)C(=O)O; Piperidide = C1CCN(*)CC1; Ac5c = NC1(C(=O)O)CCCC1; Aze = O=C(O)[C@@H]1CCN1; Cyclopropyl = C1CC1*; Ethyl(2-OH) = OCC*; NEtG = CCNCC(=O)O; Sar = CNCC(=O)O; Propyl = CCC*
test system: Human pancreatic cancer cell line AsPC-1; experiment: Measurement of AsPC-1 cell growth inhibition (AsPC-1 CGI); type: cell-based; settings: 96 h
Summary of the method: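 AsPC-1 cells in 15% FBS RPMI-1640 were exposed to test compound for 96 hours at 37° C, with CellTiter-Glo as endpoint.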

Row | SMILES | IC50 [nM]
1 | CC[C@H](C)[C@@H]1NC(=O)[C@H](CC(C)C)N(C)C(=O)C[C@@H](C(=O)N2CCCCC2)N(C)C(=O)[C@H](C2CCCCC2)N(C)C(=O)C2(CCCC2)NC(=O)[C@@H]2C[C@H](OCCO)CN2C(=O)[C@H](CCc2ccc(C(F)(F)F)c(Cl)c2)NC(=O)CN(C)C(=O)[C@H](CC2CCCCC2)N(C)C(=O)CN(C)C(=O)CN(C)C1=O [Compound 2117, (3S,9S,18S,21S,25S,28S,34S,36S)-3-[2-[3-chloro-4-(trifluoromethyl)phenyl]ethyl]-28-cyclohexyl-9-(cyclohexylmethyl)-36-(2-hydroxyethoxy)-21-isobutyl-7,10,13,16,22,26,29-heptamethyl-18-[(1S)-1-methylpropyl]-25-(piperidine-1-carbonyl)spiro[1,4,7,10,13,16,19,22,26,29,32-undecazabicyclo[32.3.0]heptatriacontane-31,1′-cyclopentane]-2,5,8,11,14,17,20,23,27,30,33-undecone] ([NMeL]I[Sar][Sar][NMeCha][Sar][hPhe(3-Cl-4-CF3)][cisHyp](Ethyl(2-OH))[Ac5c][NMeChg][NMeD]-Piperidide; lactam N-11) | 100 to 500
2 | CC[C@H](C)[C@@H]1NC(=O)[C@H](CC2CCCCC2)N(C)C(=O)C[C@@H](C(=O)N2CCCCC2)N(C)C(=O)[C@H](C(C)C)N(C)C(=O)C2(CCCC2)NC(=O)[C@@H]2CCCN2C(=O)[C@H](CCc2ccc(C(F)(F)F)c(Cl)c2)NC(=O)CN(C)C(=O)[C@H](CC2CCCCC2)N(C)C(=O)[C@@H]2CCN2C(=O)[C@H](C)N(C)C1=O [Compound 572] ([NMeCha]I[NMeA][Aze][NMeCha][Sar][hPhe(3-Cl-4-CF3)]P[Ac5c][NMeV][NMeD]-Piperidide; lactam N-11) | 100 to 500
3 | CC[C@H](C)[C@@H]1NC(=O)[C@H](CC(C)C)N(C)C(=O)C[C@@H](C)N(C)C(=O)[C@H](C2CCCC2)N(C)C(=O)C2(CCCC2)NC(=O)[C@@H]2CCCN2C(=O)[C@H](CCc2ccc(C(F)(F)F)c(F)c2)NC(=O)CN(C)C(=O)[C@H](CC2CCCCC2)N(C)C(=O)[C@@H]2CCN2C(=O)[C@H](C)N(C)C1=O [Compound 49] (cyclo([Ac5c][NMeGly(cPent)][NMedβ3hAla][NMeL]I[NMeA][Aze][NMeCha][Sar][hPhe(3-F,4-CF3)]P)) | 20 to 50
4 | C#CC[C@H]1C(=O)N[C@@H]([C@@H](C)CC)C(=O)N(C)[C@@H](C)C(=O)N2CC[C@H]2C(=O)N(C)[C@@H](CC2CCCCC2)C(=O)N(C)CC(=O)N[C@@H](CCc2ccc(C(F)(F)F)c(Cl)c2)C(=O)N2CCC[C@H]2C(=O)NC2(CCCC2)C(=O)N(C)[C@@H](C(C)C)C(=O)N(C)[C@H](C(=O)N2CCCCC2)CC(=O)N1C [Compound 559] ([NMePra]I[NMeA][Aze][NMeCha][Sar][hPhe(3-Cl-4-CF3)]P[Ac5c][NMeV][NMeD]-Piperidide; lactam N-11) | 100 to 500
5 | CC[C@H](C)[C@@H]1NC(=O)[C@H](CC(C)C)N(C)C(=O)C[C@@H](C)N(C)C(=O)[C@H](C2CCCC2)N(C)C(=O)C2(CCCC2)NC(=O)[C@@H]2CCCN2C(=O)[C@H](CCc2ccc(C(F)(F)F)c(Cl)c2)NC(=O)CN(C)C(=O)[C@H](C2CCCC2)N(C)C(=O)[C@@H]2CCN2C(=O)[C@H](C)N(C)C1=O [Compound 1046] (cyclo([Ac5c][NMeGly(cPent)][NMedβ3hAla][NMeL]I[NMeA][Aze][NMeGly(cPent)][Sar][hPhe(3-Cl-4-CF3)]P)) | 20 to 50
6 | CC[C@H](C)[C@@H]1NC(=O)[C@H](CC(C)C)N(C)C(=O)C[C@@H](C(=O)N2CCCCC2)N(C)C(=O)[C@H](C(C)C)N(C)C(=O)C2(CCCC2)NC(=O)[C@@H]2CCCN2C(=O)[C@H](CCc2ccc(C(F)(F)F)c(Cl)c2)NC(=O)CN(C)C(=O)[C@H]([C@@H](C)OC)N(C)C(=O)[C@@H]2CCN2C(=O)[C@H](C)N(C)C1=O [Compound 929] ([NMeL]I[NMeA][Aze][NMeT](Me)[Sar][hPhe(3-Cl-4-CF3)]P[Ac5c][NMeV][NMeD]-Piperidide; lactam N-11) | 100 to 500
7 | CC[C@H](C)[C@@H]1NC(=O)[C@H](CC(C)C)N(C)C(=O)C[C@@H](C(=O)N2CCCCC2)N(C)C(=O)[C@H](C(C)C)N(C)C(=O)C2(CCCC2)NC(=O)[C@@H]2CCCN2C(=O)[C@H](CCc2ccc(C(F)(F)F)c(Cl)c2)NC(=O)CN(C)C(=O)[C@H](CC2CCCCC2)N(CC)C(=O)[C@@H]2CCN2C(=O)[C@H](C)N(C)C1=O [Compound 23] ([NMeL]I[NMeA][Aze][X6][Sar][hPhe(3-Cl-4-CF3)]P[Ac5c][NMeV][NMeD]-Piperidide; lactam N-11) | 100 to 500
8 | CC[C@H](C)[C@@H]1NC(=O)[C@H](COC2CC2)N(C)C(=O)C[C@@H](C(=O)N2CCCCC2)N(C)C(=O)[C@H](C(C)C)N(C)C(=O)C2(CCCC2)NC(=O)[C@@H]2CCCN2C(=O)[C@H](CCc2ccc(C(F)(F)F)c(Cl)c2)NC(=O)CN(C)C(=O)[C@H](CC2CCCCC2)N(C)C(=O)[C@@H]2CCN2C(=O)[C@H](C)N(C)C1=O [Compound 1764] ([NMeS](Cyclopropyl)I[NMeA][Aze][NMeCha][Sar][hPhe(3-Cl-4-CF3)]P[Ac5c][NMeV][NMeD]-Piperidide; lactam N-11) | 100 to 500
9 | CC[C@H](C)[C@@H]1NC(=O)[C@H](CC(C)C)N(C)C(=O)C[C@@H](C(=O)N(C)C)N(C)C(=O)[C@H](C(C)C)N(C)C(=O)C2(CCCC2)NC(=O)[C@@H]2CCCN2C(=O)[C@H](CCc2ccc(C(F)(F)F)c(Cl)c2)NC(=O)CN(C)C(=O)[C@H](Cc2ccc(C)cc2)N(C)C(=O)[C@@H]2CCN2C(=O)[C@H](C)N(C)C1=O [Compound 1653] ([NMeL]I[NMeA][Aze][NMePhe(4-Me)][Sar][hPhe(3-Cl-4-CF3)]P[Ac5c][NMeV][NMeD]-NMe2; lactam N-11) | 50 to 100
10 | CCCOC[C@H]1C(=O)N(C)CC(=O)N[C@@H](CCc2ccc(C(F)(F)F)c(Cl)c2)C(=O)N2CCC[C@H]2C(=O)NC2(CCCC2)C(=O)N(C)[C@@H](C2CCCC2)C(=O)N(C)[C@H](C(=O)N2C3CCC2COC3)CC(=O)N(C)[C@@H](CCC(C)C)C(=O)N[C@@H]([C@@H](C)CC)C(=O)N[C@@H](C)C(=O)N2CC[C@H]2C(=O)N1C [Compound 1326] ([NMehLeu]IA[Aze][NMeS](Propyl)[Sar][hPhe(3-Cl-4-CF3)]P[Ac5c][NMeGly(cPent)][NMeD]-{3Oxa8azabicyclo(3.2.1)octane}; lactam N-11) | 20 to 50
11 | CC[C@H](C)[C@@H]1NC(=O)[C@H](CC(C)C)N(C)C(=O)C[C@@H](C(=O)N2CCCCC2)N(C)C(=O)[C@H](C(C)C)N(C)C(=O)C2(CCCC2)NC(=O)[C@@H]2CCCN2C(=O)[C@H](CCc2ccc(Cl)cc2)NC(=O)CN(C)C(=O)[C@H](CC2CCCCC2)N(C)C(=O)[C@@H]2CCN2C(=O)CN(C)C1=O [Compound 916] ([NMeL]I[Sar][Aze][NMeCha][Sar][hPhe(4-Cl)]P[Ac5c][NMeV][NMeD]-Piperidide; lactam N-11) | 100 to 500
12 | CC[C@H](C)[C@@H]1NC(=O)[C@H](CC(C)C)N(C)C(=O)C[C@@H](C)NC(=O)[C@H](C2CCCC2)NC(=O)C2(CCCC2)NC(=O)[C@@H]2CCCN2C(=O)[C@H](CCc2ccc(C(F)(F)F)c(Cl)c2)NC(=O)CN(C)C(=O)[C@H](Cc2ccc(C)cc2)N(C)C(=O)[C@@H]2CCN2C(=O)[C@H](C)N(C)C1=O [Compound 1213] (cyclo([Ac5c][Gly(cPent)][d(β3hA)][NMeL]I[NMeA][Aze][NMePhe(4-Me)][Sar][hPhe(3-Cl-4-CF3)]P)) | 100 to 500
13 | CC[C@H](C)[C@@H]1NC(=O)[C@H](CCC(F)F)N(C)C(=O)C[C@@H](C(=O)N2CCCCC2)N(C)C(=O)[C@H](C(C)C)N(C)C(=O)C2(CCCC2)NC(=O)[C@@H]2CCCN2C(=O)[C@H](CCc2ccc(C(F)(F)F)c(Cl)c2)NC(=O)CN(C)C(=O)[C@H](CC2CCCCC2)N(C)C(=O)[C@@H]2CCN2C(=O)[C@H](C)N(C)C1=O [Compound 1797] ([NMeNva(5,5-F2)]I[NMeA][Aze][NMeCha][Sar][hPhe(3-Cl-4-CF3)]P[Ac5c][NMeV][NMeD]-Piperidide; lactam N-11) | 100 to 500
14 | CCCCC[C@H]1C(=O)N[C@@H]([C@@H](C)CC)C(=O)N[C@@H](C)C(=O)N2CC[C@H]2C(=O)N(C)[C@@H](COCCC)C(=O)N(C)CC(=O)N[C@@H](CCc2ccc(C(F)(F)F)c(Cl)c2)C(=O)N2CCC[C@H]2C(=O)NC2(CCCC2)C(=O)N(C)[C@@H](C2CCCC2)C(=O)N(C)[C@H](C(=O)N2C3CCC2COC3)CC(=O)N1C [Compound 163] ([NMeAhp(2)]IA[Aze][NMeS](Propyl)[Sar][hPhe(3-Cl-4-CF3)]P[Ac5c][NMeGly(cPent)][NMeD]-{3Oxa8azabicyclo(3.2.1)octane}; lactam N-11) | 50 to 100
15 | CC[C@H](C)[C@@H]1NC(=O)[C@H](C2CCCC2)N(C)C(=O)C[C@@H](C(=O)N2CCCCC2)N(C)C(=O)[C@H](C(C)C)N(C)C(=O)C2(CCCC2)NC(=O)[C@@H]2CCCN2C(=O)[C@H](CCc2ccc(C(F)(F)F)c(Cl)c2)NC(=O)CN(C)C(=O)[C@H](CC2CCCCC2)N(C)C(=O)[C@@H]2CCN2C(=O)[C@H](C)N(C)C1=O [Compound 225] ([NMeGly(cPent)]I[NMeA][Aze][NMeCha][Sar][hPhe(3-Cl-4-CF3)]P[Ac5c][NMeV][NMeD]-Piperidide; lactam N-11) | 100 to 500
16 | CCCOC[C@H]1C(=O)N(CC)CC(=O)N[C@@H](CCc2ccc(C(F)(F)F)c(Cl)c2)C(=O)N2CCC[C@H]2C(=O)NC2(CCCC2)C(=O)N(C)[C@@H](C2CCCC2)C(=O)N(C)[C@H](C(=O)N2C3CCC2COC3)CC(=O)N(C)[C@@H](CC(C)C)C(=O)N[C@@H]([C@@H](C)CC)C(=O)N(C)[C@@H](C)C(=O)N2CC[C@H]2C(=O)N1C [Compound 1338] ([NMeL]I[NMeA][Aze][NMeS](Propyl)[NEtG][hPhe(3-Cl-4-CF3)]P[Ac5c][NMeGly(cPent)][NMeD]-{3Oxa8azabicyclo(3.2.1)octane}; lactam N-11) | 50 to 100
17 | C#CCC[C@H]1C(=O)N[C@@H]([C@@H](C)CC)C(=O)N(C)[C@@H](C)C(=O)N2CC[C@H]2C(=O)N(C)[C@@H](Cc2ccc(I)cc2)C(=O)N(C)CC(=O)N[C@@H](CCc2ccc(C(F)(F)F)c(Cl)c2)C(=O)N2CCC[C@H]2C(=O)NC2(CCCC2)C(=O)N(C)[C@@H](C2CCCCC2)C(=O)N[C@H](C)CC(=O)N1C [Compound 971] (cyclo([Ac5c][NMeChg][d(β3hA)][NMeHpra]I[NMeA][Aze][NMePhe(4-I)][Sar][hPhe(3-Cl-4-CF3)]P)) | 100 to 500

— patent US12371454B2, “Cyclic peptide compound having Kras inhibitory action” (priority 2019, dated 2025)
